Experiments:
[1] = target: T1, human FAP protein expressed on 293T cells (Homo sapiens, UniProt Q12884); assay: Cell binding assay by flow cytometry, 293T-human FAP cells
T1 construct: expressed in transfected cells; host or cells: 293T cells, PIRES-puro3 vector, puromycin selection
T1 sequence (Q12884 1-760): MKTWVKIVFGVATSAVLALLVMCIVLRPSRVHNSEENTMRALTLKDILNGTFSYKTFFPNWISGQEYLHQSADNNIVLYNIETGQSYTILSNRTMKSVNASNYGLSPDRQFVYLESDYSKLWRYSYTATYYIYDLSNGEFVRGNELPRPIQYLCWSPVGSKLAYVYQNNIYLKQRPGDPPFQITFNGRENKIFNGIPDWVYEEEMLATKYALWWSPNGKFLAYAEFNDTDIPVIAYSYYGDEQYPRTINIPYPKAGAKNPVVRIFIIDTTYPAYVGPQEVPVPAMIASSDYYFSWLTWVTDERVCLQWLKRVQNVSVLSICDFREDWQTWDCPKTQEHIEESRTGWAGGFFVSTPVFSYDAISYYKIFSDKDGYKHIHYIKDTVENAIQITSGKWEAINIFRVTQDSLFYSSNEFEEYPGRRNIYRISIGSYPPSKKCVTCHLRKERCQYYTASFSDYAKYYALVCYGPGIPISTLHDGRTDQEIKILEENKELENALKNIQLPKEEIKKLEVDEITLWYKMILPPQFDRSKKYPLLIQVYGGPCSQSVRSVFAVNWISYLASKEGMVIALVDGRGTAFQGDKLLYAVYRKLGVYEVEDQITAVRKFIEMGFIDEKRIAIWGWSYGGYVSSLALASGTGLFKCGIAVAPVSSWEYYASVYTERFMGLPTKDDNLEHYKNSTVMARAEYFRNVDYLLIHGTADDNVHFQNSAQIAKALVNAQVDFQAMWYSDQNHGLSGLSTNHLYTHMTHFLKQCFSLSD
Procedure: Whether the humanized antibody of the present disclosure can bind to human FAP protein stably expressed on the surface of 293T cells was determined by a cell binding assay. Firstly, the sequences encoding human FAP protein (NM_004460.2, SEQ ID NO: 31) and cynomolgus FAP (XM_005573320.2, SEQ ID NO: 32) were cloned into expression vector PIRES-puro3 (Clontech, Cat #631619) […]. The vectors were used to transfect 293T cells. […]
The human FAP antibodies (huF19-LG and sibrotuzumab) were 4-fold serially diluted from a starting concentration of 200 nM to a total of 8 concentrations and added to the cells for co-incubation at 4° C. for 30 min. […] The cells were washed twice with PBS and then resuspended, and finally, fluorescence signals were detected using the […] (BD Bioscience) flow cytometer.
Whether the mutant antibody in the present disclosure can bind to human or cynomolgus FAP protein stably expressed on the surface of 293T cells was determined by a cell binding assay. […] The cells were washed twice with PBS and then resuspended, and finally, fluorescence signals were detected using the […] (BD Bioscience) flow cytometer. […]

[2] = test system: bilateral idiopathic pulmonary fibrosis model; assay: Bleomycin-induced idiopathic pulmonary fibrosis (IPF) model in mice; assay type: in vivo, C57BL/6 mice
Procedure: In this animal pharmacodynamic study, a bilateral idiopathic pulmonary fibrosis model was induced using bleomycin instillation into the trachea of mice supplied by KCl BioTech. The efficacy of the surrogate antibody fusion protein 28H1-Trap on pulmonary fibrosis was evaluated in this model. C57BL/6 mice (Cavens Biogle (Suzhou) Co., Ltd.) aged 8-9 weeks were treated from the day of modeling and the induced pulmonary fibrosis model was established by tracheal instillation of bleomycin after the treatment. In the next three weeks, intraperitoneal doses were given twice weekly, and the body weight was measured once every two days. The specific treatments and dosages are shown in the following table: Mice were euthanized at the end of study. At the end of study, both lungs were collected from 15 surviving animals in each group (6 in the normal group) and fixed by formalin perfusion. Histological sections were made, stained with Masson, imaged (FIGS. 7A-H), and graded by pulmonary fibrosis scores. Pathological staining results are shown in FIG. 7, where black arrows indicate intact alveolar structures and the dark interstitial parts indicate collagen accumulation.

[3] = test system: renal interstitium fibrosis model induced by left ureter ligation; assay: UUO renal interstitium fibrosis model in mice; assay type: in vivo, C57BL/6J mice; conditions: 20 mg/kg and 3 mg/kg intraperitoneal every other day, day 10; FIG. 9, FIG. 10
Procedure: In this animal pharmacodynamic study, a renal interstitium fibrosis model was induced by left ureter ligation in mice supplied by KCl BioTech. The efficacy of the surrogate antibody fusion protein 28H1-Trap on renal fibrosis was evaluated in this model. C57BL/6J mice (Shanghai Jihui Laboratory Animal Care Co., Ltd.) aged 8-9 weeks were randomized by weight. On the day of modeling (day 0), the mice in groups 2-4 were anesthetized with isoflurane. The abdominal cavity was opened along the ventral midline, and the left ureter of the animal was ligated. The abdomen was closed and the skin was sutured. The treatment was given intraperitoneally on the day of modeling. The animals in group 1 were anesthetized with isoflurane. The abdominal cavity was opened along the ventral midline and closed immediately, and the skin was sutured. In the next 10 days, the treatments were given intraperitoneally once every other day, and the body weight was measured once every two days. The specific treatments and dosages are shown in the following table: The animals were given an I.P. injection of the test substance on days 0, 2, 4, 6, and 8, and the animals were given the analgesic meloxicam subcutaneously on days 1-3. The body weight was recorded daily. The kidney on the UUO side were scored for fibrosis by Masson staining. […] The degree of fibrosis of the kidney was evaluated (see FIG. 10).

With “28H1-Trap: pharmacodynamic surrogate fusion protein: anti-FAP antibody 28H1 (WO2012020006) fused to TGFβR2 extracellular domain; heavy chain SEQ ID NO: 29, light chain SEQ ID NO: 28” the “binding to human FAP protein expressed on engineered 293T cells (FACS)” value [1] was “confirmed to bind to human FAP at cellular level”, the “pulmonary fibrosis grading (Ashcroft scoring)” value ([2]; 20 mg/kg and 3 mg/kg vs modeling group, FIG. 8B) was “reduced the pulmonary fibrotic lesions in a dose-dependent manner” and the “grade of pulmonary fibrotic lesions (Masson staining, pathological sections)” value ([2]; 20 mg/kg intraperitoneal twice weekly, 21 days, vs modeling group, FIG. 7) was “could reduce the grade of pulmonary fibrotic lesions”. For the same substance, the “pulmonary fibrosis staining scoring” value ([2]; high dose (20 mg/kg) vs modeling group, FIG. 8A) was “can reduce fibrotic lesions in the lungs at a high dose” and the “kidney fibrosis score by Masson staining” value [3] was “significant dose-dependent ameliorative effect on the fibrosis in the renal cortex of the kidney”.
